The values that follow come from patent publication US12403169B2, “Compositions and methods related to Rhamnus prinoides (gesho) extract for the inhibition of polymicrobial biofilm formation” (GEORGIA STATE UNIVERSITY RESEARCH FOUNDATION, INC., priority 2018, dated 2025).

One experiment relates to biofilm. Put plainly: Screen of other compounds for anti-biofilm effect. Type of experiment: cell-based.
Experiment [1] relates to Staphylococcus aureus biofilm formation. In words: microbe, parasite or virus in culture. The following applies: for effect on biofilm formation: evaluated at 0.8% and 3%; for IC50 / CC50: Staphylococcus aureus; for IC50: 24 h, read-out: BP50; for CC50: read-out: category based on BP50 and LC50; for anti-biofilm activity (words): pure compounds. As to the method: Staphylococcus aureus and Streptococcus mutans biofilms were grown in Luria-Bertani (LB) broth and brain-heart infusion (BHI) medium containing 0.5% sucrose, respectively. Biofilm formation was assessed using a polystyrene 96 well microtiter plate crystal violet assay. Overnight broth cultures were diluted to an initial optical density (OD600) of 0.01 in fresh media and combined with gesho extract to obtain a final concentration of 7 mg/ml. Treatments were then serially diluted to final extract concentrations of 5, 3, 1, 0.5 and 0.25 mg/ml. Negative controls consisted of cells diluted to an initial optical density (OD600) of 0.01 in growth media without plant extract. 100 μl of treated and untreated samples were added to each well of a microtiter plate and incubated at 37° C. for 24 hours. After 24 hours, planktonic cells and spent growth media were removed from each well and the plate was washed three times in sterile water. Biofilms were then stained with 150 μl of 0.1% crystal violet for 15 minutes at 200 rpm. Excess dye was removed via washing in sterile water and the plate was allowed to air dry.
Staphylococcus aureus and Pseudomonas aeruginosa biofilms were grown in LB broth and PBM-glucose, respectively. Biofilm formation was assessed using a polystyrene 96 well microtiter plate crystal violet assay. […] DMSO was added to solubilize the treatments. Negative controls consisted of cells diluted to an initial OD600 of 0.01 in growth media without treatment. 100 μl of treated and untreated samples were added to each well of a microtiter plate and incubated at 37° C. for 24 h. After 24 h, planktonic cells and spent growth media were removed from each well and the plate was washed 3 times in sterile water. Biofilms were then stained with 150 μl of 0.1% crystal violet for 15 min at 200 rpm. Excess dye was removed via washing in sterile water and the plate was allowed to air dry.
Biofilm formation was assessed using a polystyrene 96 well microtiter plate crystal violet assay.^23 Overnight broth cultures were diluted to an initial OD600 of 0.01 in fresh LB and combined with a target compound to obtain a final concentration of 7 mg/ml. Treatments were then serially diluted to final extract concentrations of 5, 3, 1, 0.5 and 0.25 mg/ml. No vehicles were added to solubilize the treatments. Untreated cells served as negative controls. 100 μl of treated and untreated samples were added to each well of a microtiter plate and incubated at 37° C. for 24 h. After 24 h, planktonic cells and spent growth media were removed from each well and the plate was washed 3 times in sterile water. Biofilms were then stained with 150 μl of 0.1% crystal violet for 15 min at 200 rpm. Excess dye was removed via washing in sterile water and the plate was allowed to air dry. […] The molarity of each treatment was calculated using excel.

In experiment [2] the test system is Staphylococcus aureus growth. In words: Staphylococcus aureus growth curve. It counts as cell-based, Staphylococcus aureus ATCC 6538. As to the method:
2 mL of each treatment was added to 19 culture tubes and the samples were incubated for 24 h at 37° C. with shaking at 200 rpm. 1 mL of each sample was transferred to a cuvette and the absorbance measurements at 600 nm were taken every hour for 9 hours. 24 h measurements were taken the following day. Untreated samples and samples containing 1.6 μg/mL vancomycin served as a negative and positive controls, respectively. Growth rates were calculated using the slope of the log phase of growth (t=0 h and t=4 h).

Experiment [3] relates to Staphylococcus aureus biofilms. In words: Staphylococcus aureus biofilm killing assay (resazurin). Type of experiment: cell-based, Staphylococcus aureus ATCC 6538. To be noted: combination with vancomycin at its MBEC. The protocol: Staphylococcus aureus biofilms were formed as described above. Staphylococcus aureus biofilms were grown in LB broth. […] […]. Negative controls consisted of 100 μL of fresh LB without compound or antibiotic. […] 100 μL of 10 μg/mL resazurin in LB was added to each biofilm and the plate was statically incubated at 37° C. for 3 hrs. During incubation, fluorescence intensity was measured at λex=570 nm λem=590 nm every 6 minutes using an Enspire fluorescence plate reader. Data was normalized to the emission at t=0 and the rates of resazurin conversion to resorufin was calculated to identify the time at which maximum fluorescence was achieved.

The test system of experiment [4] is Staphylococcus aureus hydrophobicity. Put plainly: Hydrophobicity test (microbial adherence to hydrocarbon). The following applies: 0.2 or 0.4 mg/mL, 24 h. Type of experiment: cell-based. The protocol: Hydrophobicity analysis was conducted according to Ciccio, et al., 2015 with a few modifications. Three milliliters of Staphylococcus aureus cultures were grown in the presence of 4-ethoxybenzoic acid (0.2 or 0.4 mg/mL) or methyl gallate (0.2 or 0.4 mg/mL) for 24 h at 37° C. with shaking at 200 rpm. Cultures were diluted to an OD600 of 0.6 and washed with 1 mL PBS. 5 mL of the inoculum was produced, 1 mL was removed for plating on growth agar and 1 mL of hexadecane was applied to the air-liquid interface or the remaining 4 mL. Hexadecane samples were vortexed for 1 min and the phases allowed to separate for 15 minutes at room temperature. 1 mL of the aqueous layer was removed and plated on growth agar. Agar plates were incubated at 37° C. overnight and plate counts were conducted the following day. Results were interpreted as the percent of cells present in the aqueous layer prior to (A0) and after (A1) the addition of hexadecane [(A0−A1)/A0]*100.

The subject of experiment [5] is Staphylococcus aureus stationary phase planktonic cells. The following applies: pure compounds, with or without 1% DMSO. The protocol: To assess the viability of stationary phase planktonic cell, a growth agar based assay was conducted. Spent media containing stationary phase planktonic cells was collected after a biofilm formation assay. Collected cells were serially diluted in PBS and dilutions were radially plated in 10 μl volumes on growth medium. Agar plates were incubated at 37° C. overnight to allow for colony formation. Plate counts were used to assess viability.
To assess the viability of stationary phase planktonic cells, a growth agar-based assay was conducted. Spent media containing stationary phase planktonic cells were collected from microtiter plates after the conclusion of each biofilm formation assay. The collected cells were serially diluted (1:10) in PBS and dilutions were radially plated in 10 μl volumes on growth medium. Agar plates were incubated at 37° C. overnight to allow for colony formation and plate counts were used to assess viability. Colony forming units per milliliter of culture (CFU/mL) was calculated by dividing the colony counts (C) by the volume added (V) multiplied by the dilution factor (D): […]

In experiment [6] the test system is Staphylococcus aureus log-phase planktonic cells. In words: Log-phase cell antimicrobial assay. Type of experiment: cell-based, Staphylococcus aureus ATCC 6538. To be noted: pure compounds, with or without 1% DMSO. The protocol:
Bacteria were inoculated in 20 ml of growth media at an initial optical density (OD600) of 0.01 and incubated at 37° C., 200 rpm until log-phase was reached. One milliliter of log-phase cells was transferred to 1.5 ml microfuge tubes and growth media removed via centrifugation. Pelleted cells were washed twice with phosphate buffered saline (PBS) before resuspending the pellets in 1 ml of extract dissolved in PBS. Treatments were incubated at 37° C. for 1 hour then serially diluted in PBS and radially plated on growth agar.
Bacteria were inoculated in 20 ml of growth media at an initial optical density (OD600) of 0.01 and incubated for 4±1 h at 37° C. with shaking at 200 rpm until log phase (OD600≈0.35) was reached. 1 ml of log-phase cells was transferred to 1.5 ml microfuge tubes and the growth medium was removed via centrifugation. Pelleted cells were washed twice with phosphate buffered saline (PBS) before resuspending the pellets in 1 ml of 4-ethoxybenzoic acid or methyl gallate with or without vancomycin dissolved in PBS. Treatments were incubated at 37° C. for 1 h and then serially diluted in PBS and radially plated on growth agar.

Turning to `CCCCCCCCC(C)O` (stereo not shown) [2-decanol], in the experiment on biofilm, the “anti-biofilm effect” value was “anti-biofilm effect”.

As to `CCCC(C)=O` [2-pentanone, reference compound], the “effect on biofilm formation” value in experiment [1] was “Neither benzoic acid nor 2-pentanone had a statistically significant effect on biofilm formation”.

In the case of `O=C(O)c1cccc(O)c1` [3-hydroxybenzoic acid], in experiment [1], the IC50 amounted to 9.6 mM and the CC50 is under 15 mM.

As for `CCOc1ccc(C(=O)O)cc1` [4-ethoxybenzoic acid], the Percent attenuation is 12% in experiment [2] (1.2 mM) and 47% in experiment [2] (2.4 mM). Further, the Growth rate in experiment [2] (1.2 mM, t=0 to t=4 h) amounted to 0.97 log replications/hr; in experiment [2] (2.4 mM, t=0 to t=4 h) it was 0.58 log replications/hr. Moreover, in experiment [3], the “synergism with vancomycin in biofilm killing” value is “synergistic effects”. In addition, the “hydrophobicity of S. aureus” value in experiment [4] is listed as “decreased the hydrophobicity”. Further, the IC50 in experiment [1] was found to be 1.6 mM. For the same compound, the CC50 in experiment [1] is under 7.5 mM.

Regarding `CCOC(=O)c1ccc(OCC)cc1` [EEB, ethyl 4-ethoxybenzoate], the “antibacterial activity against stationary phase cells” value in experiment [5] is “did not show antibacterial activity”. The “antibacterial activity against log phase cells” value in experiment [6] is recorded as “did not show antibacterial activity”. Besides, in experiment [1], the CC50 was over 7.5 mM and the “anti-biofilm activity (words)” value was “significant anti-biofilm activity”. Further, the “effect of DMSO on anti-biofilm activity” value in experiment [1] (combined with 1% DMSO) is “presence of DMSO increased the anti-biofilm activity of EEB”. Further, the “anti-biofilm activity (words)” value in experiment [1] (listed as ethyl 4-ethoxybenzoate) is listed as “anti-biofilm activity”.

For the compound `O=C(O)c1ccccc1` [benzoic acid, reference compound], the “effect on biofilm formation” value in experiment [1] was “Neither benzoic acid nor 2-pentanone had a statistically significant effect on biofilm formation”.

For the compound `CCOC(=O)c1cc(O)c(O)c(O)c1` [ethyl gallate], in experiment [1], the IC50 amounted to 6.7 mM and the CC50 is under 15 mM.

`O=C(O)c1cc(O)c(O)c(O)c1` [gallic acid]: in experiment [1], the IC50 came to 17.3 mM and the CC50 is over 7.5 mM.

Take `O=C(O)c1cc(O)ccc1O` [gentisic acid, 2,5-dihydroxybenzoic acid]: the IC50 in experiment [1] came out at 9.2 mM.

Take `COC(=O)c1cc(O)c(O)c(O)c1` [methyl gallate]: the Percent attenuation worked out at 30% in experiment [2] (1.1 mM) and 46% in experiment [2] (1.2 mM). For the same compound, the Growth rate worked out at 0.77 log replications/hr in experiment [2] (1.1 mM, t=0 to t=4 h) and 0.59 log replications/hr in experiment [2] (1.2 mM, t=0 to t=4 h). Moreover, in experiment [3], the “synergism with vancomycin in biofilm killing” value was “did not exhibit synergism”. In experiment [4], the “hydrophobicity of S. aureus” value was “decreased the hydrophobicity”. The IC50 in experiment [1] was determined as 0.82 mM. Besides, in experiment [1], the CC50 is under 7.5 mM.

On to `COC(=O)c1ccc(O)cc1` [methyl paraben, 4-hydroxybenzoic acid methyl ester], for which, in experiment [2] (5.2 mM), the Percent attenuation turned out to be 25%. In experiment [2] (5.2 mM, t=0 to t=4 h), this compound displayed a Growth rate of 0.83 log replications/hr.

For `O=C(O)c1ccc(O)cc1` [p-hydroxybenzoic acid, 4-hydroxybenzoic acid], in experiment [1], the IC50 turned out to be 8 mM and the CC50 was under 15 mM.

For the compound `CCCOC(=O)c1cc(O)c(O)c(O)c1` [propyl gallate], in experiment [1], the IC50 came to 2.9 mM and the CC50 was under 15 mM.

Consider `O=C(O)c1ccc(O)c(O)c1` [protocatechuic acid, 3,4-dihydroxybenzoic acid], for which, in experiment [1], the IC50 came to 14.4 mM and the CC50 is under 15 mM.

In the case of `O=C(O)c1cccc(O)c1O` [pyrocatechuic acid, 2,3-dihydroxybenzoic acid], in experiment [1], the IC50 worked out at 4.8 mM and the CC50 is under 15 mM.

For the compound `O=C(O)c1ccccc1O` [salicylic acid, 2-hydroxybenzoic acid], in experiment [1], the IC50 came out at 38.5 mM and the CC50 was over 7.5 mM.

As for `CN[C@H](CC(C)C)C(=O)N[C@H]1C(=O)N[C@@H](CC(N)=O)C(=O)N[C@H]2C(=O)N[C@H]3C(=O)N[C@H](C(=O)N[C@H](C(=O)O)c4cc(O)cc(O)c4-c4cc3ccc4O)[C@H](O)c3ccc(c(Cl)c3)Oc3cc2cc(c3O[C@@H]2O[C@H](CO)[C@@H](O)[C@H](O)[C@H]2O[C@H]2C[C@](C)(N)[C@H](O)[C@H](C)O2)Oc2ccc(cc2Cl)[C@H]1O` [vancomycin, reference compound], in experiment [2] (1.1 μM, positive control), the Growth rate came out at 0.0 log replications/hr and the Percent attenuation turned out to be 100%.
